The record followed here is US20130344026A1, “Dimeric Smac Mimetics” (priority 2009, published 2013).

Where two headings read alike, the source gives them in different places.

The test system of this assay is PANC-1 cells. The assay is described as follows: cell viability assay in PANC-1 cells (compound alone, + 100 ng/ml TNFa, + 300 ng/ml TRAIL). The class given is cell-based. Conditions: Tables 6-10.
[1] abbreviates: Homo sapiens, PANC-1, compound alone, read-out: IC50 (μM) in cell viability assay in PANC-1 cells: Compound alone.
Where [2] appears, read: with 100 ng/ml TNFa, read-out: IC50 (μM) in cell viability assay in PANC-1 cells: Compound + 100 ng/ml TNFa.
Setting [3] is: with 300 ng/ml TRAIL, read-out: IC50 (μM) in cell viability assay in PANC-1 cells: Compound + 300 ng/ml TRAIL.

For `CN[C@@H](C)C(=O)N[C@H](C(=O)N1C[C@@H](NC(=O)c2cccc(C(=O)N[C@H]3C[C@@H](C(=O)N[C@H](C)C4OCCCO4)N(C(=O)[C@@H](NC(=O)[C@H](C)NC)C(C)(C)C)C3)c2)C[C@H]1C(=O)N[C@H](C)C1OCCCO1)C(C)(C)C` [Compound 53], the IC50 under setting [1] was over 1 µM, the IC50 under setting [2] turned out to be 0.466 µM and the IC50 under setting [3] came out at 0.227 µM.
Regarding `CN[C@@H](C)C(=O)N[C@@H](CCCCCC[C@H](NC(=O)[C@H](C)NC)C(=O)N[C@H]1c2ccccc2C[C@@H]1NC(=O)c1cc2ccccc2cc1OC)C(=O)N[C@H]1c2ccccc2C[C@@H]1NC(=O)c1cc2ccccc2cc1OC` [Compound 58], the IC50 under setting [1] is over 1 µM, the IC50 under setting [2] is over 1 µM and the IC50 under setting [3] was over 1 µM.
As to `CN[C@@H](C)C(=O)N[C@@H](CCCCCC[C@H](NC(=O)[C@H](C)NC)C(=O)N[C@H]1c2ccccc2C[C@@H]1NC(=O)c1c(OC)cccc1OC)C(=O)N[C@H]1c2ccccc2C[C@@H]1NC(=O)c1c(OC)cccc1OC` [Compound 59], the IC50 reads like this: under setting [1], over 1 µM; under setting [2], over 1 µM; under setting [3], over 1 µM.
Take `CN[C@@H](C)C(=O)N[C@H](C(=O)N1C[C@@H](NC(=O)c2cccc(C(=O)N[C@H]3C[C@@H](C(=O)N[C@H](COC)[C@@H](C)OC)N(C(=O)[C@@H](NC(=O)[C@H](C)NC)C(C)(C)C)C3)c2)C[C@H]1C(=O)N[C@H](COC)[C@@H](C)OC)C(C)(C)C` [Compound 69]: the IC50 is, setting by setting: under setting [1], over 1 µM; under setting [2], over 1 µM; under setting [3], over 1 µM.
Regarding `CN[C@@H](C)C(=O)N[C@H](C(=O)N1CCC[C@H]1Cn1ccnc1Cc1ccccc1)[C@@H](C)OCC#CC#CCO[C@H](C)[C@H](NC(=O)[C@H](C)NC)C(=O)N1CCC[C@H]1Cn1ccnc1Cc1ccccc1` [Compound 74], the IC50 under setting [1] is over 1 µM, the IC50 under setting [2] is over 1 µM and the IC50 under setting [3] was over 1 µM.
For the compound `CN[C@@H](C)C(=O)N[C@@H](CCCCCC[C@H](NC(=O)[C@H](C)NC)C(=O)N1CCC[C@H]1CNC(=O)Cc1ccccc1)C(=O)N1CCC[C@H]1CNC(=O)Cc1ccccc1` [Compound 77], the IC50 by setting is: under setting [1], over 1 µM; under setting [2], over 1 µM; under setting [3], over 1 µM.
Take `CN[C@@H](C)C(=O)N[C@@H](CCCCCC[C@H](NC(=O)[C@H](C)NC)C(=O)N1CCC[C@H]1CC(=O)N[C@H](C)c1ccccc1)C(=O)N1CCC[C@H]1CC(=O)N[C@H](C)c1ccccc1` [Compound 79]: the IC50 under setting [1] is over 1 µM, the IC50 under setting [2] was over 1 µM and the IC50 under setting [3] is over 1 µM.
Consider `CN[C@@H](C)C(=O)N[C@H](C(=O)N1CCC[C@H]1Cn1cnnc1Cc1ccccc1)[C@@H](C)OCC#CC#CCO[C@H](C)[C@H](NC(=O)[C@H](C)NC)C(=O)N1CCC[C@H]1Cn1cnnc1Cc1ccccc1` [Compound 80], for which the IC50 under setting [1] is over 1 µM, the IC50 under setting [2] is over 1 µM and the IC50 under setting [3] is over 1 µM.
For the compound `CN[C@@H](C)C(=O)N[C@H](C(=O)N1CCC[C@H]1CN1CCC[C@H]1C(c1ccccc1)c1ccccc1)[C@@H](C)OCC#CC#CCO[C@H](C)[C@H](NC(=O)[C@H](C)NC)C(=O)N1CCC[C@H]1CN1CCC[C@H]1C(c1ccccc1)c1ccccc1` [Compound 81], the IC50 under setting [1] is over 1 µM, the IC50 under setting [2] was determined as 0.155 µM and the IC50 under setting [3] was 0.196 µM.
`CN[C@@H](C)C(=O)N[C@H](C(=O)N1CCC[C@H]1CN1C(=O)OC[C@@H]1Cc1ccccc1)[C@@H](C)OCC#CC#CCO[C@H](C)[C@H](NC(=O)[C@H](C)NC)C(=O)N1CCC[C@H]1CN1C(=O)OC[C@@H]1Cc1ccccc1` [Compound 82]: the IC50 reads like this: under setting [1], over 1 µM; under setting [2], 0.536 µM; under setting [3], 0.564 µM.
For `CN[C@@H](C)C(=O)N[C@H](C(=O)N1CCC[C@H]1CN1CCC[C@H]1C(c1ccccc1)c1ccccc1)[C@@H](C)OCCCCCCO[C@H](C)[C@H](NC(=O)[C@H](C)NC)C(=O)N1CCC[C@H]1CN1CCC[C@H]1C(c1ccccc1)c1ccccc1` [Compound 83], in that order: over 1 µM, 0.494 µM and 0.437 µM.
`CN[C@@H](C)C(=O)N[C@H](C(=O)N1CCC[C@H]1CN1C(=O)OC[C@@H]1Cc1ccccc1)[C@@H](C)OCCCCCCO[C@H](C)[C@H](NC(=O)[C@H](C)NC)C(=O)N1CCC[C@H]1CN1C(=O)OC[C@@H]1Cc1ccccc1` [Compound 84]: the IC50 is over 1 µM under setting [1], over 1 µM under setting [2] and over 1 µM under setting [3].
Regarding `CN[C@@H](C)C(=O)N[C@H](C(=O)N1CCC[C@H]1Cn1cnnc1CCc1ccccc1)[C@@H](C)OCC#CC#CCO[C@H](C)[C@H](NC(=O)[C@H](C)NC)C(=O)N1CCC[C@H]1Cn1cnnc1CCc1ccccc1` [Compound 85], the IC50 under setting [1] is over 1 µM, the IC50 under setting [2] was over 1 µM and the IC50 under setting [3] was over 1 µM.
As to `CN[C@@H](C)C(=O)N[C@H](C(=O)N1CCC[C@H]1Cn1cnnc1CCc1ccccc1)[C@@H](C)OCCCCCCO[C@H](C)[C@H](NC(=O)[C@H](C)NC)C(=O)N1CCC[C@H]1Cn1cnnc1CCc1ccccc1` [Compound 86], the IC50 was over 1 µM under setting [1], over 1 µM under setting [2] and over 1 µM under setting [3].
On to `CN[C@@H](C)C(=O)N[C@@H](CCCCCC[C@H](NC(=O)[C@H](C)NC)C(=O)N1c2ccccc2C[C@H]1C(=O)N[C@H](C)c1ccccc1)C(=O)N1c2ccccc2C[C@H]1C(=O)N[C@H](C)c1ccccc1` [Compound 92], for which the IC50 under setting [1] was over 1 µM, the IC50 under setting [2] worked out at 0.547 µM and the IC50 under setting [3] amounted to 0.798 µM.
As for `CN[C@@H](C)C(=O)N[C@@H](CCCCCC[C@H](NC(=O)[C@H](C)NC)C(=O)N1c2ccccc2C[C@H]1C(=O)N[C@@H]1CCCc2ccccc21)C(=O)N1c2ccccc2C[C@H]1C(=O)N[C@@H]1CCCc2ccccc21` [Compound 93], the IC50 is, setting by setting: under setting [1], over 1 µM; under setting [2], 0.299 µM; under setting [3], 0.327 µM.
For `CN[C@@H](C)C(=O)N[C@@H](CCCCCC[C@H](NC(=O)[C@H](C)NC)C(=O)N1CCCC[C@H]1C(=O)N[C@@H]1CCCc2ccccc21)C(=O)N1CCCC[C@H]1C(=O)N[C@@H]1CCCc2ccccc21` [Compound 94], in that order: over 1 µM, 0.014 µM and 0.049 µM.
The like results for `CN[C@@H](C)C(=O)N[C@@H](CC#CC#CC[C@H](NC(=O)[C@H](C)NC)C(=O)N1Cc2ccccc2C[C@H]1C(=O)N[C@H](C)c1ccccc1)C(=O)N1Cc2ccccc2C[C@H]1C(=O)N[C@H](C)c1ccccc1` [Compound 95] were, in that order, over 1 µM, over 1 µM and over 1 µM.
The like results for `CN[C@@H](C)C(=O)N[C@@H](CCCCCC[C@H](NC(=O)[C@H](C)NC)C(=O)N1Cc2ccccc2C[C@H]1C(=O)N[C@H](C)c1ccccc1)C(=O)N1Cc2ccccc2C[C@H]1C(=O)N[C@H](C)c1ccccc1` [Compound 96] were, in that order, over 1 µM, 0.211 µM and 0.417 µM.
`CN[C@@H](C)C(=O)N[C@@H](CCCCCC[C@H](NC(=O)[C@H](C)NC)C(=O)N1C[C@@H](F)C[C@H]1C(=O)N[C@@H]1CCCc2ccccc21)C(=O)N1C[C@@H](F)C[C@H]1C(=O)N[C@@H]1CCCc2ccccc21` [Compound 100]: the IC50 under setting [1] is over 1 µM, the IC50 under setting [2] was 0.057 µM and the IC50 under setting [3] came to 0.052 µM.
